Experimental data reported in patent US6538037B2, “Methods for preparation and use of 1α,24(S)-dihydroxyvitamin D2” (Bone Care International, Inc., priority 1991, dated 2003).
Entries after “also recorded” stand apart in the source; their conditions may differ.

Columns and labels:
bovine thymus VDR = target: T1, bovine thymus VDR (Bos taurus, UniProt Q28037); assay: Radioreceptor assay, displacement of 3H-1α,25-(OH)2D3 tracer from bovine thymus VDR; type: binding
T1 construct: commercially available reagents of bovine thymus VDR; purchased Incstar (Stillwater, Minn.); host or cells: bovine thymus
T1 sequence (Q28037 1-426): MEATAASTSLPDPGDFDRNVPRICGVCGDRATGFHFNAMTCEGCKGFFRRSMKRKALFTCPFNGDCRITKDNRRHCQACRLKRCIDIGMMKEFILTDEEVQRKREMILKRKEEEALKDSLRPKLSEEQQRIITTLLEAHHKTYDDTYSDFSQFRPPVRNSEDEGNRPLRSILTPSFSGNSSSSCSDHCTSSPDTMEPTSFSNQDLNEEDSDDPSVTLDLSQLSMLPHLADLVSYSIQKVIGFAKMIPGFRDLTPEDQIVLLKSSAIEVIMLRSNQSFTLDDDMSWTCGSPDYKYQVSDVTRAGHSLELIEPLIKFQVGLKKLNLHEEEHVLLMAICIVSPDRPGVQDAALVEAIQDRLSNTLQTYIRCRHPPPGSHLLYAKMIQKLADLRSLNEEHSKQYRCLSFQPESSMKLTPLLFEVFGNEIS
Method: Purified 1α,24(S)-(OH)2D2 was quantitated by photodiode array spectrophotometry and assayed in the radioreceptor assay.
The purified 1α,24(R)-(OH)2D2 and 1α,24(S)-(OH)2D2 epimers were quantitated by ultraviolet spectroscopy.
The binding affinities of the environmentally exposed compounds, crystalline 1α,24-dihydroxyvitamin D2 and powdered 1α,24-dihydroxyvitamin D2, to the vitamin D receptor (VDR) were assessed using methods known in the art, as described, e.g., in Example 6. […] The percent bound versus amount of compound in pg/tube are graphed in FIG. 5.

[1] = Preventive treatment of bone mass loss in postmenopausal osteoporotic women; type: in vivo, human; details: at or above 1.0 μg/day, 24 to 36 months
Method: A clinical study is conducted with postmenopausal osteoporotic out-patients having ages between 55 and 75 years. The study involves up to 120 patients randomly divided into three treatment groups and continues for 24 to 36 months. Two of the treatment groups receive constant dosages of 1α,24(S)-dihydroxyvitamin D2 (u.i.d.; two different dose levels at or above 1.0 μg/day) and the other group receives a matching placebo. All patients maintain a normal intake of dietary calcium (500 to 800 mg/day) and refrain from using calcium supplements. Efficacy is evaluated by pre-and post-treatment comparisons of the patient groups with regard to (a) total body calcium retention, and (b) radial and spinal bone mineral density as determined by dual-photon absorptiometry (DPA) or dual-energy x-ray absorptiometry (DEXA). Safety is evaluated by comparisons of urinary hydroxyproline excretion, serum and urine calcium levels, creatinine clearance, blood urea nitrogen, and other routine determinations.

[2] = Hypocalcemia and metabolic bone disease in chronic hemodialysis patients; type: in vivo, human; details: greater than 3.0 μg/day
Method: A twelve-month, double-blind, placebo-controlled clinical trial is conducted with thirty men and women with renal disease who are undergoing chronic hemodialysis. All patients enter an 8-week control period during which time they receive a maintenance dose of Vitamin D3 (400 IU/day). After this control period, the patients are randomized into two treatment groups: one group receives a constant dosage of 1α,24(S)-dihydroxyvitamin D2 (u.i.d.; a dosage greater than 3.0 μg/day) and the other group receives a matching placebo. Both treatment groups receive a maintenance dosage of Vitamin D3, maintain a normal intake of dietary calcium, and refrain from using calcium supplements. Efficacy is evaluated by pre- and post-treatment comparisons of the two patient groups with regard to (a) direct measurements of intestinal calcium absorption, (b) total body calcium retention, (c) radial and spinal bone mineral density, or (d) determinations of serum calcium. Safety is evaluated by regular monitoring of serum calcium.

Human keratinocytes = assay: Epidermal cell differentiation and proliferation testing; type: cell-based; details: 0.05 to 5 μg/ml, versus control cultures
Method: Human keratinocytes are cultured according to known modifications of the system originally described by Rheinwald and Green (Cell, vol.6, p.331 (1975)). The 1α,24(S)-dihydroxyvitamin D2, dissolved in ethanol, is added to cells to yield a variety of concentrations between 0.05 and 5 μg/ml with the ethanol concentration not to exceed 0.5% v/v. Control cultures are supplemented with ethanol at a final concentration of 0.5% v/v. Differentiation and proliferation of epidermal cells in culture is examined by:
1. quantitation of cornified envelopes;
2. quantitation of cell density of cells attached to disks;
3. monitoring transglutaminase activity; or
4. monitoring DNA synthesis by incorporation of ^3H-thymidine.

[3] = system: human cancer cell lines BCA-1 or ZR-75-1 (breast) and COL-1 (colon); assay: Antiproliferative activity in human cancer cell lines (thymidine incorporation); type: cell-based; details: dose-response studies
Method: Dose-response studies are conducted with 1α,24(S)-(OH)2D2 in a battery of human cancer cell lines. These cell lines include, but are not limited to, the following: BCA-1 or ZR-75-1 (breast) and COL-1 (colon), as described by Shieh, H. L. et al. Chem. Biol. Interact., vol. 81, pp. 35-55 (1982). In this study, appropriate solvents are used as negative controls.

[4] = system: vitamin D receptor positive tumor; assay: General treatment of cancers, open-label study; type: in vivo, human; details: after 18 months
From the text: Patients with a known vitamin D receptor positive tumor (e.g., adenocarcinoma of the prostate, breast, lung, colon or pancreas, or transitional cell carcinoma of the bladder, or melanoma) participate in an open-label study of 1α,24(S)-(OH)2D2. Patients are placed on a reduced calcium diet prior to treatment, to help minimize intestinal absorption and allow ever higher doses of 1α,24(S)-dihydroxyvitamin D2. This reduced calcium diet may be continued for the duration of treatment, and for one week after the last dose of the 1α,24(S)-dihydroxyvitamin D2. The diet ideally restricts daily calcium intake to 400-500 mg. Patients also discontinue use of any vitamin supplements or vitamin D replacement therapies. Each patient is also asked to drink 4-6 cups of fluid more than usual intake to assure adequate oral hydration.
Each subject is monitored at regular intervals for: (1) hypercalcemia, hyperphosphatemia, hypercalciuria, hyperphosphaturia and other toxicity; (2) evidence of changes in the progression of metastatic disease; and (3) compliance with the prescribed test drug dosage.
The dosing regimen is typically on a daily dose basis of 10 μg or 20 μg per day to about 100 μg/day for 24 months. Alternatively, a non-daily dosing regimen can be used, e.g., 40 μg given every other day, 100 μg given once a week. […]

For `C=C1/C(=C\C=C2/CCC[C@]3(C)[C@@H]([C@H](C)/C=C/[C@@](C)(O)C(C)C)CC[C@@H]23)C[C@@H](O)C[C@@H]1O` [1α,24(S)-(OH)2D2, 1α,24(S)-dihydroxyvitamin D2], the “affinity for VDR relative to 1α,25-(OH)2D3” value (bovine thymus VDR) was “two-fold lower affinity; also recorded: two-fold less competitive”, the IC50 (bovine thymus VDR; radioreceptor assay, Incstar kit, read-out: half-maximal binding (converted)) was ~0.35 nM and the “incidence of hypercalcemia or hypercalciuria” value [1] was “insignificant incidence of hypercalcemia or hypercalciuria”. For the same molecule, the “total body calcium, radial and spinal bone densities relative to placebo” value [1] was “significantly higher total body calcium, and radial and spinal bone densities”, the intestinal calcium absorption ([2]; double-isotope technique) was “significantly increases intestinal calcium absorption” and the incidence of hypercalcemia ([2]; twelve months) was “insignificant incidence of hypercalcemia”. The serum calcium levels ([2]; twelve months) was “normalized serum calcium levels”, the “total body calcium and radial and spinal bone densities relative to baseline” value ([2]; twelve months) was “stable values for total body calcium, and stable radial and spinal bone densities” and the “DNA synthesis by incorporation of 3H-thymidine” value (Human keratinocytes) was “lower DNA synthesis”. The “cell density of cells attached to disks” value (Human keratinocytes) was “fewer attached cells”, the cornified envelopes (Human keratinocytes) was “more cornified envelopes” and the transglutaminase activity (Human keratinocytes) was “higher transglutaminase activity”. For the same molecule, the “antiproliferative activity, inhibition of thymidine incorporation” value [3] was “potent (and reversible) antiproliferative activity”, the “progress of metastatic disease (CAT scans, X-rays, bone scans)” value ([4]; higher dosage) was “stable disease and partial or complete remission in many patients” and the “progress of metastatic disease (CAT scans, X-rays, bone scans)” value ([4]; lower dosage) was “partial remission in many patients”.
